Source: patent publication US20250346616A1 (DIZAL (JIANGSU) PHARMACEUTICAL CO., LTD., priority 2022, published 2025)

Tests used:
[1] = biological target: Recombinant ROCK2 (Homo sapiens (Human), UniProt O75116); assay: Lance Ultra Kinase Assay, ROCK2 inhibition; assay type: biochemical; details: ATP at Km, 30 min pre-incubation, 1 h reaction
[2] = biological target: Recombinant ROCK1 (Homo sapiens (Human), UniProt Q13464); assay: Lance Ultra Kinase Assay, ROCK1 inhibition; assay type: biochemical; details: ATP at Km, 30 min pre-incubation, 1 h reaction
Experimental: The inhibition potency of compounds against these enzymes was assessed using Lance Ultra Kinase Assay. In brief, recombinant kinases were pre-incubated in the presence or absence of compound at room temperature for 30 minutes. The reaction was initiated by the addition of the ATP (Km) and substrate peptide which could be phosphorylated by kinases in the reaction. After 1 h incubation, the reaction was stopped by the addition of the detection reagent mix containing EDTA. The fluorescence was measured at 615 nm and 665 nm, respectively with excitation wavelength at 320 nm. The calculated signal ratio of 665 nm/615 nm is proportional to the kinase activity.

[3] = test system: HepG2 cells; assay: Cell-based phospholipidosis assay (LipidTOX Red); details: Homo sapiens, 24 h, LipidTOX Red dye
Experimental: HepG2 cells were dispensed into Collagen I-coated 96-well black wall/clear bottom assay plates at 5000 cells/90 μL/well.
The assay plates were then incubated at 37° C. for 24 h, […] of 8% paraformaldehyde (4% final) fixative solution containing 8 μg/ml Hoechst 33342 (4 ug/mL final) in DPBS was added to each well. After incubation at room temperature for 25 min, the assay plates were washed with DPBS. The assay plates were sealed and stored at 4° C. before imaging.
The fluorescence intensities (595 nm excitation, 615 nm emission for LipidTOX Red; 352 nm excitation, 461 nm emission for Hoechst 33342) were measured using an High Content Screening System (Operetta, PerkinElmer) with a 10×Fluor objective. […] Average intensities were subjected to Prism and EC50 were calculated.

[4] = test system: pMLC2; assay: Cellular PD assay, pMLC2 in PASMC (western blot); assay type: cell-based; details: PASMC, 0.5 h; Human Pulmonary Artery Smooth Muscle Cells, 30 min incubation
Experimental: (§1) PASMC (Human Pulmonary Artery Smooth Muscle Cells) were grown in Smooth Muscle Cell Growth medium (Promocell #C-22162). The cells were resuspended at 3×10^5 cells per well in 6-well plate in Smooth Muscle Cell Growth medium (Promocell #C-22162) and incubated compound concentration range: (10000/1111/333/111/37/12.3/4.1/0.41/0 nM) for 30 min.
(§2) Cells were then placed on ice and washed with ice-cold PBS. Cell lysates were prepared with 2×SDS. Separate proteins by SDS-PAGE 2 hr, transfer of proteins form gel to membrane 90 min, Blocking the membrane with 5% milk 1 hr and incubation in primary antibody overnight at 4° C., Incubate the membrane in HRP-conjugated secondary antibody diluted in blocking buffer (1:2000) for 1 hour at room temperature. Detection using Amersham ECL plus western blotting detection system (LAS4000). The purified product was analysed by SDS PAGE and the amount of target protein calculated by gray scanning by Multi-Gauge V3.0 software.

[5] = test system: pMYPT1; assay: Cellular PD assay, pMYPT1 in PASMC (western blot); assay type: cell-based; details: PASMC, 0.5 h; Human Pulmonary Artery Smooth Muscle Cells, 30 min incubation
Experimental: as §1, §2

Recombinant ROCK1, sequence (Q13464 whole entry): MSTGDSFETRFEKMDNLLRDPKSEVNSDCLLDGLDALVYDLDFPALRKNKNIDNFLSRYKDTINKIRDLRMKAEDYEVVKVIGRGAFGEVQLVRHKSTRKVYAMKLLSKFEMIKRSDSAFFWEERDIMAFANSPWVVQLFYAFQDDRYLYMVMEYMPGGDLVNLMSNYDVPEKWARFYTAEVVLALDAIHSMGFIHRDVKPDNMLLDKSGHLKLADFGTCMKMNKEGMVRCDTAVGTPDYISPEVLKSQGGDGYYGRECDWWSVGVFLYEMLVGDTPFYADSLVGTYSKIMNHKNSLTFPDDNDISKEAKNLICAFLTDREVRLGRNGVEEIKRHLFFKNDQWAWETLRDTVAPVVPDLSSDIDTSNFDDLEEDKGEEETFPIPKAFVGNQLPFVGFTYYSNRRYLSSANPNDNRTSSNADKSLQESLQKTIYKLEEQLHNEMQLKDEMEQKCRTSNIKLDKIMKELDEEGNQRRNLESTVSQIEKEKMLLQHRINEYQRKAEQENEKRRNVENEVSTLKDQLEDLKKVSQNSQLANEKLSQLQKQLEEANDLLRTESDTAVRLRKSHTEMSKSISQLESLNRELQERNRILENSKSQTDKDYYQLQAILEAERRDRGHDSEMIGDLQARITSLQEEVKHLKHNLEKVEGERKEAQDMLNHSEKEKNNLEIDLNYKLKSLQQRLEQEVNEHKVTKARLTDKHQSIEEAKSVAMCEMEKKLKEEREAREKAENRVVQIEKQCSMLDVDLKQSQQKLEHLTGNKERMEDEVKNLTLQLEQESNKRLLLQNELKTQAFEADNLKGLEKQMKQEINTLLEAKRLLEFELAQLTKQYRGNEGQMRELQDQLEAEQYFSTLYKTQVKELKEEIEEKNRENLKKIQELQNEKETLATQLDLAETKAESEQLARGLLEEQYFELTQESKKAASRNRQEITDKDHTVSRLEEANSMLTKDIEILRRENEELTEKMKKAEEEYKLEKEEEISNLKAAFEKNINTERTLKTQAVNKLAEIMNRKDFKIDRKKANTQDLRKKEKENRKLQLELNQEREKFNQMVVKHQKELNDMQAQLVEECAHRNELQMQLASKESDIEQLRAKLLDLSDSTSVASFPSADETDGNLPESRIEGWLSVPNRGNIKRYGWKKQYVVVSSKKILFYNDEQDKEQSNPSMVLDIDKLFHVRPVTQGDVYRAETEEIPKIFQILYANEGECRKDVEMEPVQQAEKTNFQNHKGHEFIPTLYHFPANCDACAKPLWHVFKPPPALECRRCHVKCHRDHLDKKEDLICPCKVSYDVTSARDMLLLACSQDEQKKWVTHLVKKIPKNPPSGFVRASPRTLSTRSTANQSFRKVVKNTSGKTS
Recombinant ROCK2, sequence (O75116 whole entry): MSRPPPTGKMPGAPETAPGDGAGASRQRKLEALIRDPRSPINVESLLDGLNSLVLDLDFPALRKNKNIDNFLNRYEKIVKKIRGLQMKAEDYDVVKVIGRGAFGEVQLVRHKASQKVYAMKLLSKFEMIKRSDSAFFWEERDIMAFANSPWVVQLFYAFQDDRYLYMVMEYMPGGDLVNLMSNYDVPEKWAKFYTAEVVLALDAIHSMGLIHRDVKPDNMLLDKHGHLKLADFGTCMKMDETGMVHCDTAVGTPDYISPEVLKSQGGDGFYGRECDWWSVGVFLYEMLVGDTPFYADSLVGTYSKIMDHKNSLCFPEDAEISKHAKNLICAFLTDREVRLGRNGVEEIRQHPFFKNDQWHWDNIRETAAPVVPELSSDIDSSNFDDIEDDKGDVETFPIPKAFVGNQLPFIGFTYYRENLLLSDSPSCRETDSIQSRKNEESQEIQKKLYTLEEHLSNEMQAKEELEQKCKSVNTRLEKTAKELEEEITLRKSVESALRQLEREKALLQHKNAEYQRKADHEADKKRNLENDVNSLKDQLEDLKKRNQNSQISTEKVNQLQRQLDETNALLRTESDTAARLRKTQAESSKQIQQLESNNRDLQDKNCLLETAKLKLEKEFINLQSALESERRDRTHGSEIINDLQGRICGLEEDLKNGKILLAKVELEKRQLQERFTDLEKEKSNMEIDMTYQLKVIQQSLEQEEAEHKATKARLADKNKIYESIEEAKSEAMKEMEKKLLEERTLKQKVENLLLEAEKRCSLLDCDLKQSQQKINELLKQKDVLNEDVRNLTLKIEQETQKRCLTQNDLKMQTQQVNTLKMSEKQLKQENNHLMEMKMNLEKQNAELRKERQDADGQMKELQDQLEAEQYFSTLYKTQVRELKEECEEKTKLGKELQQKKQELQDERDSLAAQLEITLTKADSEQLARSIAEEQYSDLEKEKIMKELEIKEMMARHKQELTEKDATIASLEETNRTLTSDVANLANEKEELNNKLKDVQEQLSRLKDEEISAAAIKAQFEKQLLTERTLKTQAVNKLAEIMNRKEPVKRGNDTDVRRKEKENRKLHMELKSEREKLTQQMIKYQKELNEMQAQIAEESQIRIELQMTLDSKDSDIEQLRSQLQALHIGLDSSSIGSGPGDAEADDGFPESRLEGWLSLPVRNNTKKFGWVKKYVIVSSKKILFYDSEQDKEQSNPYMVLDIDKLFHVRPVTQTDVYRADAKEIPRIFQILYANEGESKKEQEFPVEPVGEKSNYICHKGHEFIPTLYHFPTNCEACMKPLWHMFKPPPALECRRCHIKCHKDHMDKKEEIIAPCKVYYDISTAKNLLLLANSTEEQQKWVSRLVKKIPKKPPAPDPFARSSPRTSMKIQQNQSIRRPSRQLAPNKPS

Row | IC50 [1] | IC50 [2] | IC50 [4] | IC50 [5] | Compound | EC50 [3]
1 | 0.92 nM | 2.2 nM |  |  | N#Cc1cccc(C(CN)C(=O)Nc2cccc3c(-c4cn[nH]c4)c[nH]c23)c1 (racemic) [Example 19, N-(3-(1H-pyrazol-4-yl)-1H-indol-7-yl)-3-amino-2-(3-cyanophenyl)propanamide] | > 50 µM
2 | 0.48 nM | 1.2 nM | 31 nM |  | NCC(C(=O)Nc1cccc2c(-c3cn[nH]c3)c[nH]c12)c1cccnc1 (racemic) [Example 31, N-(3-(1H-pyrazol-4-yl)-1H-indol-7-yl)-3-amino-2-(pyridin-3-yl)propanamide] | > 50 µM
3 | 0.65 nM | 0.86 nM |  |  | CNC(=O)OCc1cccc(C(CN)C(=O)Nc2cccc3c(-c4cn[nH]c4)c[nH]c23)c1 (racemic) [Example 49, 3-(1-((3-(1H-pyrazol-4-yl)-1H-indol-7-yl)amino)-3-amino-1-oxopropan-2-yl)benzyl methylcarbamate] | > 200 µM
4 | 0.62 nM | 2 nM |  |  | NCC(C(=O)Nc1cccc2c(-c3cn[nH]c3)c[nH]c12)c1ccc(C(N)=O)cc1 (racemic) [Example 74, 4-(1-((3-(1H-pyrazol-4-yl)-1H-indol-7-yl)amino)-3-amino-1-oxopropan-2-yl)benzamide] | > 200 µM
5 | 0.22 nM | 0.42 nM | 95 nM |  | NCCN1CCN(C(C(=O)Nc2cccc3c(-c4cn[nH]c4)c[nH]c23)c2ccccc2)CC1 (racemic) [Example 105, 2-[4-(2-aminoethyl)piperazin-1-yl]-2-phenyl-N-[3-(1H-pyrazol-4-yl)-1H-indol-7-yl]acetamide] | 23.6 µM
6 | 0.17 nM | 0.33 nM | 46 nM | 99 nM | NCC(C(=O)Nc1cccc2c(-c3cn[nH]c3)c[nH]c12)c1ccc(CO)cc1 (single isomer, unassigned) [Example 3, N-(3-(1H-pyrazol-4-yl)-1H-indol-7-yl)-3-amino-2-(4-(hydroxymethyl)phenyl)propanamide] | > 200 µM
7 | 0.14 nM | 0.3 nM | 4.2 nM | 5.6 nM | COc1cccc(C(CN)C(=O)Nc2cccc3c(-c4cn[nH]c4)c[nH]c23)c1 (single isomer, unassigned) [Example 18, N-(3-(1H-pyrazol-4-yl)-1H-indol-7-yl)-3-amino-2-(3-methoxyphenyl)propanamide] | 10.9 µM
8 | 1.3 nM | 2.8 nM | 38 nM | 41 nM | N#Cc1cccc(C(CN)C(=O)Nc2cccc3c(-c4cn[nH]c4)c[nH]c23)c1 (single isomer, unassigned) [Example 20, N-(3-(1H-pyrazol-4-yl)-1H-indol-7-yl)-3-amino-2-(3-cyanophenyl)propanamide] | > 200 µM
9 | 0.96 nM | 1.4 nM | 85 nM | 153 nM | NCC(C(=O)Nc1cccc2c(-c3cn[nH]c3)c[nH]c12)C1CCOCC1 (single isomer, unassigned) [Example 26, N-(3-(1H-pyrazol-4-yl)-1H-indol-7-yl)-3-amino-2-(tetrahydro-2H-pyran-4-yl)propanamide] | > 200 µM
10 | 0.24 nM | 0.55 nM | 42 nM | 62 nM | NCC(C(=O)Nc1cccc2c(-c3cn[nH]c3)c[nH]c12)c1cccnc1 (single isomer, unassigned) [Example 32, N-(3-(1H-pyrazol-4-yl)-1H-indol-7-yl)-3-amino-2-(pyridin-3-yl)propanamide] | > 200 µM
11 | 0.26 nM | 0.44 nM | 8.2 nM | 13 nM | CN1CCN(CC(C(=O)Nc2cccc3c(-c4cn[nH]c4)c[nH]c23)c2ccccc2)CC1 (single isomer, unassigned) [Example 38, N-(3-(1H-pyrazol-4-yl)-1H-indol-7-yl)-3-(4-methylpiperazin-1-yl)-2-phenylpropanamide] | 6.23 µM
12 | 0.83 nM | 2.7 nM | 61 nM | 155 nM | N#Cc1ccc(C(CN)C(=O)Nc2cccc3c(-c4cn[nH]c4)c[nH]c23)cc1 (single isomer, unassigned) [Example 59, N-(3-(1H-pyrazol-4-yl)-1H-indol-7-yl)-3-amino-2-(4-cyanophenyl)propanamide] | > 66.6 µM
13 | 0.7 nM | 2.3 nM |  |  | NCC(C(=O)Nc1cccc2c(-c3cn[nH]c3)c[nH]c12)c1ccc(CO)nc1 (single isomer, unassigned) [Example 60, N-(3-(1H-pyrazol-4-yl)-1H-indol-7-yl)-3-amino-2-(6-(hydroxymethyl)pyridin-3-yl)propanamide] | > 50 µM
14 |  | 1.6 nM | 8.1 nM | 10 nM | NC[C@@H](C(=O)Nc1cccc2c(-c3cn[nH]c3)c[nH]c12)c1ccc(COC(=O)CCCCCO[N+](=O)[O-])cc1 [Example 10, [4-[(1S)-1-(aminomethyl)-2-oxo-2-[[3-(1H-pyrazol-4-yl)-1H-indol-7-yl]amino]ethyl]phenyl]methyl 6-nitrooxyhexanoate] | > 66.6 µM
15 | 0.1 nM | 0.18 nM | 3 nM | 2.8 nM | COc1cccc([C@@H](N)C(=O)Nc2cccc3c(-c4cn[nH]c4)c[nH]c23)c1 [Example 42, (2R)-2-amino-2-(3-methoxyphenyl)-N-[3-(1H-pyrazol-4-yl)-1H-indol-7-yl]acetamide] | > 200 µM
16 | 0.75 nM | 1.2 nM |  |  | NCC(C(=O)Nc1cccc2c(-c3cn[nH]c3)c[nH]c12)C1CCCOC1 (centres unmarked) [Example 91, 3-amino-2-(oxan-3-yl)-N-[3-(1H-pyrazol-4-yl)-1H-indol-7-yl]propanamide] | 24.4 µM
17 |  |  |  |  | Cc1ccc(C(=O)OCc2ccc([C@@H](CN)C(=O)Nc3ccc4cnccc4c3)cc2)c(C)c1 [Netarsudil] | 0.89 µM
